{3'dT} = capped with 3'-dT; {C6} = six-carbon (C6) cap; m = 2'-O-methyl; r = 2'-OH (RNA); f = 2'-fluoro
Assay: Release of aptamer from hydrogel (UV 260 nm)
Conditions: PBS, 37° C.
Text: Hydrogel was formed similar to Example 5. An aptamer similar to Macugen of the following sequence of nucleotides and functional groups: CfGmGmAAUfCfAmGmUfGmAmAmUfGmCfUfUfAmUfAmCfAmUfCfCfGm3′(SEQ ID NO:1), with 5′ end caped with 6 carbon (C6) and 3′ end caped with a 3′-dT-S′ and Cy3 fluorescent dye, was used as an aptamer example. Gm or Am and Cf or Uf represent 2-methoxy and 2-fluoro variants of their respective purines and pyrimidines, and C, A, U and G code for cytidylic, adenylic, uridylic and guanylic acids. Hydrogels were formed similar to Example 5, except that the solution before gel formation was added to the API in powder form. The gel was incubated at 37° C. for 2 days before release experiment. For the release experiment, a small portion of gel (between […]) were transferred by a 3 mL disposable plastic pipettes into a 10 ml glass vial at ambient temperature, and the mass was measured for the final release calculation. The glass vial was slowly filled up with 5 ml of PBS solutions to minimize the disturbing of gel. The release was performed at 37° C. in triplicate. At each predetermined time point, 0.5 h, 1 h, 2 h, and 4 h in this case, the sample was gently shake for 10 s and sit at ambient temperature for 10 min before 1000 μl of releasing buffer were taken for UV quantification at 260 nm. The experiments were performed in triplicate.

Substance: aptamer: modified RNA aptamer similar to Macugen (SEQ ID NO:1), 5′ C6 cap, 3′-dT and Cy3 dye (CGGAAUCAGUGAAUGCUUAUACAUCCG; sugars from the 5' end fmmrrffmmfmmmfmfffmfmfmfffm, 5' {C6}, 3' {3'dT}, backbone not given here; Cy3 fluorescent dye attached, further chemistry not fully specified)
- duration of release from hydrogel (hydrogel Ap1 (FIG. 21)): about 4 hours
- duration of release from hydrogel (hydrogel Ap2 (FIG. 22)): about 4 hours

Reference: patent US20230173074A1, “BIOCOMPATIBLE MATERIAL AND METHODS FOR MAKING AND USING THE SAME” (PLERYON THERAPEUTICS (SHENZHEN) LIMITED, priority 2020, published 2023)
